This passage reports EC50 and AUC results from patent US12077538B2, “Diacylglycerol kinase (DGK) alpha inhibitors and uses thereof” (priority 2022, dated 2024).

The test system of one data set is Human Pan T cells. The experiment in a line: IL-2 Release Detection Assay. The format is cell-based. The note with it: T-cell, IL-2 in supernatant by ELISA, anti-CD3 pre-coated plate, 24 hours. The procedure: Add dilutions of compounds into the cells and incubate at 37° C. &5% CO2 for 24 hours. IL-2 in cell supernatant was detected by ELISA Kit (R&D, DY202). […] Top and Bottom: Plateaus in same units as Y. Log EC50: same log units as X. Activation fold: Top activation/DMSO control. Activation % at 100 nM: Activation of non-linear regression equation curve at the concentration of 100 nM/DMSO control*100%.
(In general: In an ELISA, binding on a coated surface is turned into a signal by an enzyme label.)
Broadly, the EC50 is the concentration needed to bring the measured effect to its halfway point. As to `Cc1ccc2oc(C3CCN(c4cc(=O)n(C)c5ccc(C#N)nc45)CC3)nc2c1` [Example 1, 5-methyl-8-(4-(5-methylbenzo[d]oxazol-2-yl)piperidin-1-yl)-6-oxo-5,6-dihydro-1,5-naphthyridine-2-carbonitrile], a half-maximal response (EC50) required 0.452 µM. As for `Cc1ccc2oc(C3CCN(c4cc(=O)n(C)c5ccc(Cl)cc45)CC3)nc2c1` [Example 2, 6-chloro-1-methyl-4-(4-(5-methylbenzo[d]oxazol-2-yl)piperidin-1-yl)quinolin-2(1H)-one], the EC50 came to 0.326 µM. Consider `Cc1ccc2oc(C3CCN(c4cc(=O)n(C)c5ccc(C#N)cc45)CC3)nc2c1` [Example 3, 1-methyl-4-(4-(5-methylbenzo[d]oxazol-2-yl)piperidin-1-yl)-2-oxo-1,2-dihydroquinoline-6-carbonitrile], for which the EC50 is 0.174 µM. Turning to `Cc1ccc2oc(C3CCN(c4nc(=O)n(C)c5ccc(Cl)cc45)CC3)nc2c1` [Example 4, 6-chloro-1-methyl-4-(4-(5-methylbenzo[d]oxazol-2-yl)piperidin-1-yl)quinazolin-2(1H)-one], the midpoint of the response, the EC50, lay at 0.2 µM. On to `Cc1ccc2oc(C3CCN(c4c(C#N)c(=O)n(C)c5ccc(Cl)nc45)CC3)nc2c1` [Example 9, 6-chloro-1-methyl-4-(4-(5-methylbenzo[d]oxazol-2-yl)piperidin-1-yl)-2-oxo-1,2-dihydro-1,5-naphthyridine-3-carbonitrile], for which it took 0.476 µM to reach a half-maximal effect (EC50).

As for `Cc1ccc2oc(C3CCN(c4cc(=O)n(C)c5ccc(Cl)nc45)CC3)nc2c1` [Example 10, 6-chloro-1-methyl-4-(4-(5-methylbenzo[d]oxazol-2-yl)piperidin-1-yl)-1,5-naphthyridin-2(1H)-one], a half-maximal response (EC50) required 1.25 µM. `Cn1c(=O)cc(N2CCC(c3nc4cc(F)ccc4o3)CC2)c2nc(Cl)ccc21` [Example 11, 6-chloro-4-(4-(5-fluorobenzo[d]oxazol-2-yl)piperidin-1-yl)-1-methyl-1,5-naphthyridin-2(1H)-one] yielded an EC50 of 0.832 µM. The molecule `Cn1c(=O)cc(N2CCC(c3nc4cc(F)ccc4o3)CC2)c2nc(C#N)ccc21` [Example 12, 8-(4-(5-fluorobenzo[d]oxazol-2-yl)piperidin-1-yl)-5-methyl-6-oxo-5,6-dihydro-1,5-naphthyridine-2-carbonitrile] showed an EC50 of 0.262 µM. `COCCOc1cc2c(nc1Cl)c(N1CCC(c3nc4cc(C)ccc4o3)CC1)cc(=O)n2C` [Example 15, 6-chloro-7-(2-methoxyethoxy)-1-methyl-4-(4-(5-methylbenzo[d]oxazol-2-yl)piperidin-1-yl)-1,5-naphthyridin-2(1H)-one] returned a concentration giving a half-maximal response (EC50) of 0.963 µM. The same measure, in the same setting: then `COCCOc1cc2c(nc1C#N)c(N1CCC(c3nc4cc(C)ccc4o3)CC1)cc(=O)n2C` [Example 16, 3-(2-methoxyethoxy)-5-methyl-8-(4-(5-methylbenzo[d]oxazol-2-yl)piperidin-1-yl)-6-oxo-5,6-dihydro-1,5-naphthyridine-2-carbonitrile], with 0.346 µM. For the molecule `Cc1ccc2oc(C3CCN(c4cc(=O)n(C)c5cc(NCCO)c(Cl)nc45)CC3)nc2c1` [Example 17, 6-chloro-7-((2-hydroxyethyl)amino)-1-methyl-4-(4-(5-methylbenzo[d]oxazol-2-yl)piperidin-1-yl)-1,5-naphthyridin-2(1H)-one], a half-maximal response (EC50) required 1.2 µM. On the same count and under the same terms, then `Cc1ccc2oc(C3CCN(c4cc(=O)n(C)c5cc(NCCO)c(C#N)nc45)CC3)nc2c1` [Example 18, 3-((2-hydroxyethyl)amino)-5-methyl-8-(4-(5-methylbenzo[d]oxazol-2-yl)piperidin-1-yl)-6-oxo-5,6-dihydro-1,5-naphthyridine-2-carbonitrile], with 0.123 µM; and `Cc1ccc2oc(C3CCN(c4cc(=O)n(C)c5cc(OC6CCOC6)c(C#N)nc45)CC3)nc2c1` (stereo not drawn) [Example 21, 5-methyl-8-(4-(5-methylbenzo[d]oxazol-2-yl)piperidin-1-yl)-6-oxo-3-((tetrahydrofuran-3-yl)oxy)-5,6-dihydro-1,5-naphthyridine-2-carbonitrile], with 0.132 µM. Regarding `Cc1ccc2oc(C3CCN(c4cc(=O)n(C)c5cc(OCCO)c(C#N)nc45)CC3)nc2c1` [Example 23, 3-(2-hydroxyethoxy)-5-methyl-8-(4-(5-methylbenzo[d]oxazol-2-yl)piperidin-1-yl)-6-oxo-5,6-dihydro-1,5-naphthyridine-2-carbonitrile], the concentration for a half-maximal effect (EC50) was determined as 0.294 µM.

Consider `Cc1ccc2oc(C3CCN(c4cc(=O)n(C)c5cc(OCCCO)c(C#N)nc45)CC3)nc2c1` [Example 24, 3-(3-hydroxypropoxy)-5-methyl-8-(4-(5-methylbenzo[d]oxazol-2-yl)piperidin-1-yl)-6-oxo-5,6-dihydro-1,5-naphthyridine-2-carbonitrile], for which the half-maximal effective concentration (EC50) came out at 0.512 µM. Same read-out and setting: to `Cc1ccc2oc(C3CCN(c4cc(=O)n(C)c5cc(O[C@H]6CCOC6)c(C#N)nc45)CC3)nc2c1` [Example 29, (S)-5-methyl-8-(4-(5-methylbenzo[d]oxazol-2-yl)piperidin-1-yl)-6-oxo-3-((tetrahydrofuran-3-yl)oxy)-5,6-dihydro-1,5-naphthyridine-2-carbonitrile] belongs 0.446 µM; to `Cc1ccc2oc(N3CC=C(c4cc(=O)n(C)c5cc(OCCO)c(C#N)nc45)CC3)nc2c1` [Example 30, 3-(2-hydroxyethoxy)-5-methyl-8-(1-(5-methylbenzo[d]oxazol-2-yl)-1,2,3,6-tetrahydropyridin-4-yl)-6-oxo-5,6-dihydro-1,5-naphthyridine-2-carbonitrile], 0.682 µM.

Test system in another data set: not listed separately
The experiment in a line: Pharmacokinetic Profile Evaluation (mouse PK). The format is in vivo, CD-1 mice. Conditions: CD-1, plasma, oral administration at 5 mg/kg, read-out: AUC00~∞. Here is the method:
Species and strain: CD-1 mice of SPF. Source: Sino-British SIPPR/BK Lab Animal Ltd, Shanghai. 3 mice were intravenously administrated with given compounds (Formulation: 5% DMSO+10% Solutol+85% Saline) or orally gavage administrated with given compounds (Formulation: 5% DMSO+10% Solutol+85% Saline). The blood samples were taken via cephalic vein at timepoints 0.083 h, 0.25 h, 0.5 h, 1 h, 2 h, 4 h, 8 h and 24 h after intravenous administration or at timepoints 0.25 h, 0.5 h, 1 h, 2 h, 4 h, 6 h, 8 h and 24 h after oral gavage administration, 30 μL/time point. Blood samples were placed in tubes containing K2-EDTA and stored on ice until centrifuged. The blood samples were centrifuged at 6800 g for 6 minutes at 2-8° C. within 1 h after collected and stored frozen at approximately −80° C. An aliquot of 10 μL plasma samples were protein precipitated with 200 μL MeOH in which contains 10 ng/mL Verapamil (IS). The mixture was vortexed for 1 min and centrifuged at 18000 g for 7 min. Transfer 180 μL supernatant to 96 well plates. An aliquot of 6 μL supernatant was injected for LC-MS/MS analysis by LC-MS/MS-04 (API4000) instrument. The analytical results were confirmed using quality control samples for intra-assay variation. The accuracy of >66.7% of the quality control samples should be between 80-120% of the known value(s). Standard set of parameters including Area Under the Curve (AUC(0-t) and AUC(0-∞)), elimination half-live (T1/2), maximum plasma concentration (Cmax), will be calculated using noncompartmental analysis modules in FDA certified pharmacokinetic program Phoenix WinNonlin 7.0 (Pharsight, USA).
On to `Cc1ccc2oc(C3CCN(c4cc(=O)n(C)c5ccc(C#N)nc45)CC3)nc2c1` [Example 1, 5-methyl-8-(4-(5-methylbenzo[d]oxazol-2-yl)piperidin-1-yl)-6-oxo-5,6-dihydro-1,5-naphthyridine-2-carbonitrile], for which the AUC was 6.15 µg·h/mL.

`Cn1c(=O)cc(N2CCC(c3nc4cc(F)ccc4o3)CC2)c2nc(C#N)ccc21` [Example 12, 8-(4-(5-fluorobenzo[d]oxazol-2-yl)piperidin-1-yl)-5-methyl-6-oxo-5,6-dihydro-1,5-naphthyridine-2-carbonitrile]: the AUC stood at 5.94 µg·h/mL. Take `Cc1ccc2oc(C3CCN(c4cc(=O)n(C)c5cc(OCCO)c(C#N)nc45)CC3)nc2c1` [Example 23, 3-(2-hydroxyethoxy)-5-methyl-8-(4-(5-methylbenzo[d]oxazol-2-yl)piperidin-1-yl)-6-oxo-5,6-dihydro-1,5-naphthyridine-2-carbonitrile]: the AUC came out at 12.1 µg·h/mL. For the molecule `Cc1ccc2oc(C3CCN(c4cc(=O)n(C)c5cc(O[C@@H]6CCOC6)c(C#N)nc45)CC3)nc2c1` [Example 28, (R)-5-methyl-8-(4-(5-methylbenzo[d]oxazol-2-yl)piperidin-1-yl)-6-oxo-3-((tetrahydrofuran-3-yl)oxy)-5,6-dihydro-1,5-naphthyridine-2-carbonitrile], the AUC worked out at 3.46 µg·h/mL.
